Assay results from patent US11357766B2, “Compositions and methods for treating cancer” (Texas Tech University System, priority 2017, dated 2022).

Legend:
Test in all cases: AnnexinV/FITC apoptosis assay
Type in all cases: cell-based, human
BxPC3 cells = details: 48 hours
Protocol: (§1) Briefly, the following cells were treated at 0.2×10^6, in FIG. 2A AsPC1 cells, FIG. 2B BxPC3 cells, and in FIG. 2C PANC1 cells, which were plated and treated with 5, 7.5 and 10 μM pimavanserin tartrate for 48 hours. Percent apoptotic cells was evaluated by AnnexinV/FITC apoptosis assay using Accuri C6 flow cytometer. Studies were repeated independently 3 times.
(§2) AnnexinV/FITC apoptosis assay. The effects of pimavanserin in inducing apoptosis were assessed by AnnexinV/FITC apoptosis assay. The assay was performed by FITC AnnexinV apoptosis detection kit (BD biosciences, San Jose, Calif., USA). Briefly, 0.2×10^6 pancreatic cancer cells were plated in each well of 6-well plate and incubate overnight for the cells to attach. The cells were then treated with varying concentrations of pimavanserin tartrate. After 48 hours, cells were trypsinized and suspended in PBS. Cells were washed and re-suspended in 150 μl of annexin binding buffer. The cells were then stained with 4 μl AnnexinV FITC and 4 μl propidium iodide for 20 minutes in dark. Post incubation, the volume was adjusted to 350 μl by adding annexin binding buffer. Samples were then analyzed by flow cytometer (Accuri C6, AnnArbor, Mich., USA) as previously described by the present inventors (7).
(§3) Pimavanserin induces apoptosis in pancreatic cancer cells. In order to determine the mechanism of anti-proliferative effects of pimavanserin tartrate, apoptosis induction by pimavanserin tartrate treatment was determined in AsPC1, BxPC3 and PANC1 pancreatic cancer cells by AnnexinV/FITC assay using flow cytometer. […] Treatment of AsPC1 and BxPC3 cells with 7.5 μM pimavanserin caused 2-fold increase in apoptotic cells (FIG. 2A, 2B), whereas in PANC1 cells, a 4-fold increase in apoptotic cells was observed (FIG. 2C). […] Induction of apoptosis by pimavanserin treatment in AsPC1, BxPC3 and PANC1 cells was confirmed by cleavage of caspase 3 (FIGS. 3A-3C).

PANC1 cells = details: 48 hours
Protocol: as §1, §2, §3

AsPC1 cells = details: 7.5 μM, 48 hours
Protocol: as §1, §2, §3

CC(C)COc1ccc(CNC(=O)N(Cc2ccc(F)cc2)C2CCN(C)CC2)cc1 [pimavanserin, N-(4-fluorophenylmethyl)-N-(1-methylpiperidin-4-yl)-N′-(4-(2-methylpropyloxy)phenylmethyl)carbamide]
increase in apoptotic cells (BxPC3 cells; 7.5 μM): 2 fold
increase in apoptotic cells (BxPC3 cells; 10 μM): 5 fold
increase in apoptotic cells (PANC1 cells; 7.5 μM): 4 fold
increase in apoptotic cells (PANC1 cells; 10 μM): 5 fold
increase in apoptotic cells (AsPC1 cells): 2 fold
